In patent publication US7687079B2, “Methods of treating ileus” (priority 2002, dated 2010):

Key:
[1] = system: small intestinal circular muscle; experiment: in vitro circular muscle contractility (spontaneous and bethanechol-stimulated) after SITx; type: in vivo, rat
Protocol: To determine whether CO is protective against ileus associated with small bowel transplantation, orthotopic SITx was performed in syngenic Lewis rats. SITx with caval drainage was performed using a previously described procedure. […] The graft was perfused via the aortic segment with 5 ml chilled Ringer's lactate solution, and the intestinal lumen was irrigated with 20 ml of cold saline solution containing 0.5% neomycin-sulfate (Sigma, St. Louis, Mo.). End-to-side anastomoses between the graft aorta and the recipient infrarenal aorta, and between the graft portal vein and recipient vena cava, were performed with 10-0 Novafil™ suture. The cold ischemic time was 1 hour. The entire recipient intestine was removed and the enteric continuity was restored by proximal and distal end-to-end intestinal anastomoses. Recipient animals were given 20 mg/day prophylactic cefamandole nafate for 3 postoperative days. Transplanted recipients were given water 3 hours after surgery, and were fed 24 hours after surgery.
Four groups of animals were examined in this study, two of which received a SITx. Group 1 consisted of unoperated normal rats. Group 2 animals were exposed to CO with no surgery. In Group 3, syngeneic SITx were performed and the recipients kept in room air. Group 4 consisted of SITx recipients that were placed in the CO chamber for 1 hour before surgery and then re-exposed to CO immediately following surgery until sacrificed. In both Groups 3 and 4, normal LEW rats served as donors.
The animals were exposed to CO at a concentration of 250 ppm. Briefly, 1% CO in air was mixed with air (21% oxygen) in a stainless steel mixing cylinder and then directed into a 3.70 ft^3 glass exposure chamber at a flow rate of 12 L/min. A CO analyzer (Interscan, Chatsworth, Calif.) was used to measure CO levels continuously in the chamber. CO concentrations were maintained at 250 ppm at all times. The animals were supplied food and water during the exposures.
The effect of CO treatment on intestinal dysmotility in transplanted grafts was assessed both in vitro and in vivo. […] In vitro circular muscle mechanical activity was measured as previously described (Eskandari et al., Am. J. Physiol. 273(3 Pt 1):G727-34 (1997)). Rats were anesthetized and killed by exsanguination 24 hours post-operatively. A segment of mid-jejunum was pinned in a Sylgaard™ lined dissecting dish containing pre-oxygenated Krebs-Ringer-bicarbonate buffer (KRB; in mM: 137.4 Na^+, 5.9 K^+, 2.5 Ca^2+, 1.2 Mg^2+, 134 Cl^−, 15.5 HCO3^−, 1.2 H2PO4^−, and 11.5 glucose) that was equilibrated with 97% O2/3% CO2. The intestine was opened along the mesenteric border and the mucosa removed by stripping with fine forceps. Full-thickness strips of muscularis (1×6 mm) were cut parallel to the circular muscle layer. Muscle strips were mounted in standard horizontal mechanical organ chambers that were continuously superfused with pre-oxygenated KRB maintained at 37° C. One end of each strip was attached by ligature to a fixed post and the other to an isometric force transducer (WPI, Sarasota, Fla.). Strips were allowed to equilibrate for 1 hour, after which they were incrementally stretched to the length at which maximal spontaneous contraction occurred (Lo). […] Contractile activity was calculated by integrating the area under the trace, normalized by converting the weight and length of the strip to square millimeters of tissue (1.03 mg/mm^2), and reported as g/s/mm^2.

[2] = system: rats with ileus induced by mild manipulation of the small intestine; experiment: Example 4 intestinal transit (geometric center) after IM, CO pre-treatment; type: in vivo, rat
Protocol: Ileus was induced by mild manipulation of the small intestine (IM). Rats were exposed to decreasing concentrations of CO (250, 125, 75, 30 ppm) in air for a period of either 1 hr or 3 hr prior to laparotomy (n=6). Results were compared to those obtained using previously established protocols of exposure to CO at 250 ppm 1 hr before and for 24 hr after laparotomy. Gastrointestinal function was assessed in vivo by determining intestinal transit from the distribution throughout the GI tract of orally fed fluorescein labeled dextran. The median distribution of the labeled dextran was determined for statistical comparison by calculating the geometric center (GC).

[C-]#[O+] [CO, carbon monoxide]
peak contractile force ([1]; SITx + CO 250 ppm, 100 μM bethanechol): 3.6±0.7 g/mm^2/s | Contractile force ([1]; SITx + CO, Table 2): 3.0 ± 0.4 g/s/mm^2 | spontaneous contractile activity ([1]; transplanted (SITx) rats, CO 250 ppm, 24 hours after reperfusion): restored | peak contractile force ([1]; unoperated animals treated with CO 250 ppm, bethanechol): 3.2±0.5 g/mm^2/s | spontaneous contractile activity ([1]; unoperated control rats, CO 250 ppm for 24 hours): no effect | geometric center (GC) ([2]; IM rats, 250 ppm for 1 hr only prior to surgery): 7.2±0.3 | geometric center (GC) ([2]; IM rats, 250 ppm pretreatment for 3 hr): 8.6±0.3 | geometric center (GC) ([2]; IM rats, 250 ppm, 1 hr pretreatment followed by 24 hr post-treatment): 8.2±0.4 | geometric center (GC) ([2]; IM rats, pre-treating with 30 ppm): 7.0±0.2 | geometric center (GC) ([2]; IM rats, pre-treating with 75 ppm): 8.8±0.1 | geometric center (GC) ([2]; IM rats, pre-treating with 125 ppm): 8.6±0.4 | geometric center (GC) ([2]; unoperated rats, 250 ppm for 24 hr): 8.8±0.4
